{"source": "paper PMC12734540", "about": "“Unraveling the Potential Antiviral Activity of Isoxazoline-Carbocyclic Monophosphate Nucleotides Against Echovirus 11” (Microorganisms, 2025)", "key": {"Echovirus 11 [1]": {"system": "Echovirus 11", "assay": "Post-infection CPE inhibition assay (crystal violet)", "assay_type": "cell-based, Echovirus 11 lineage 1", "conditions": "for reduction in E11 infection / E11-induced CPE / EC50: MOI 0.025, 48 h, VERO 76 cells; for EC50: post-infection CPE inhibition"}, "VERO 76 cells": {"system": "VERO 76 cells", "conditions": "for cell viability: 25 µM", "experimental": "After 48 h of incubation, 20 µL of MTS reagent were added directly to each well and the plates were incubated according to the manufacturer’s protocol. The conversion of MTS into a soluble formazan product by metabolically active cells was quantified by measuring the absorbance at 490 nm. For data analysis, the optical density (OD) of each well was first corrected by subtracting the background OD (medium + MTS without cells). The percentage of cell viability was then calculated by comparing the corrected OD of treated samples with the mean corrected OD of untreated control cells (0 µM), which was set as 100% viability:Cell viability (%) = (OD_treated − OD_blank)/(mean OD_control − OD_blank) × 100\nTwo independent experiments were performed, each in triplicate (n = 6 per condition). Dose–response curves were generated and CC50 values were determined by nonlinear regression using GraphPad Prism software v. 8.0 (San Diego, CA, USA)."}, "Echovirus 11 [2]": {"system": "Echovirus 11", "assay": "Plaque assay of infectious titer", "conditions": "25 µM, supernatants collected at 48 h p.i., vs untreated control (CV)", "experimental": "E11 infectious titers were determined by plaque assay. Briefly, 100 µL of culture supernatant from infected cells were serially diluted (10-1–10-4) in DMEM containing 1% FBS. VERO 76 cells were seeded in 24-well plates 24 h before infection to obtain 90% confluency. Cells were inoculated with 50 µl of each dilution and incubated for 1 h at 37 °C with gentle rocking. After adsorption, the inoculum was removed, and cells were overlaid with DMEM containing 1% FBS and carboxymethyl cellulose (CMC). Following 72 h incubation, monolayers were fixed, stained with crystal violet, and plaques were counted. Viral titers were expressed as plaque-forming units per milliliter (PFU/mL) according to:PFU/mL = (number of plaques)/(dilution factor × inoculated volume)."}, "SARS-CoV-2 RdRp": {"system": "SARS-CoV-2 RdRp", "set-up": "method as in PMID 37810686", "conditions": "cited from earlier work"}, "Echovirus 11 [3]": {"system": "Echovirus 11", "assay": "Two-step SYBR Green RT-qPCR of RdRp gene RNA in supernatant", "assay_type": "cell-based, Echovirus 11 lineage 1", "conditions": "25 µM, 48 h p.i., vs untreated controls, p = 0.0003", "description": "(§1) Quantification of E11 genomic RNA was used as a hallmark of RNA virus replication within VERO 76-infected cells. The viral RNA was extracted from both cell culture supernatants and cell-associated fractions and quantified by one-step qRT-PCR using the automated Elite InGenius one-step RNA Enterovirus ELITe MGB® Kit, according to the manufacturer’s protocols. The experiment was performed in triplicate and RNA yield was reported as the mean value of a triplicate assay. To improve the accuracy of extracellular RNA quantification, particularly at 48 h post-infection (p.i.), a secondary analysis was performed using a two-step SYBR Green RT-qPCR. In particular, specific primers targeting the gene encoding the RNA-dependent RNA polymerase (RdRp) of E11 were designed using the Primer3 software (version 4.1.0). […]. Reverse transcription was carried out with a high-capacity cDNA synthesis kit, followed by quantitative PCR using SYBR Green Master Mix on a real-time PCR instrument. Data were analyzed using the ΔΔCt method, with normalization to the synthetic RNA spike-in.\nTo further corroborate and confirm the inhibitory effect of 4a on viral RNA release into the extracellular environment, an additional quantification was performed using a two-step SYBR Green-based RT-qPCR targeting the gene ecoding for the viral RdRp. […]"}, "Echovirus 11 [4]": {"system": "Echovirus 11", "assay": "Time-course analysis of E11 RNA (cell monolayer and supernatant) by qRT-PCR", "assay_type": "cell-based, Echovirus 11 lineage 1", "conditions": "25 µM, MOI 0.025; for reduction in intracellular viral RNA levels: cell monolayer", "description": "as §1\nTo evaluate the antiviral activity of compound 4a in VERO 76 cells over time, viral replication was assessed through quantification of viral genome copies via qRT-PCR in both the cell-associated and supernatant fractions, as well as by CPE analysis.\nThe amount of viral RNA measured in the intracellular and the supernatant fractions was compared against the control group, which consisted of VERO 76 cells that were infected but not subjected to 4a treatment. […] (Figure 5A). […] (Figure 5B)."}, "Echovirus 11 [5]": {"system": "Echovirus 11", "assay": "E11 RNA quantification in supernatant by qRT-PCR (dose response)", "assay_type": "cell-based, Echovirus 11 lineage 1", "conditions": "48 h; for reduction in extracellular viral RNA: supernatant, MOI 0.025, relative to untreated infected controls", "description": "as §1\nThe antiviral activity of nucleotides 4a and 4b against E11 replication was further evaluated by quantifying viral RNA in the supernatant of infected VERO 76 cells treated with increasing concentrations of each compound (6.25–50 μM for 4a; 6.25–100 μM for 4b). Following viral infection at a MOI of 0.025, cells were treated and incubated for 48 h. Viral genome copies were then assessed by qRT-PCR. Treatment with nucleotide 4a led to a dose-dependent reduction in extracellular viral RNA, with a 72% decrease observed at 25 μM and an 89% reduction at 50 μM relative to untreated infected controls."}, "Echovirus 11 [6]": {"system": "Echovirus 11", "assay": "Infectivity of viral progeny (CPE on fresh cells)", "conditions": "25 µM, supernatants collected 10, 24, 48 h p.i.", "experimental": "To directly quantify this effect, a plaque assay was performed on supernatants collected at 48 h p.i."}}, "note": "Values joined by “and” are separate entries in the source; they are usually repeats but may differ in a detail not shown here. Equal entries are not always repeated.", "data": [{"smiles": "CCC(CC)COC(=O)[C@H](C)N[P@](=O)(OC[C@H]1O[C@@](C#N)(c2ccc3c(N)ncnn23)[C@H](O)[C@@H]1O)Oc1ccccc1", "note": "[RDV, Remdesivir, reference compound]", "values": [{"measurement": "protection from E11-induced CPE", "setting": "Echovirus 11 [1]; 6.25 to 25 µM, post-infection, MOI 0.025, VERO 76 cells", "result": "robust and dose-dependent protection from E11-induced CPE"}]}, {"smiles": "O=P(O)(O)OC1CC(n2cnc3c(Cl)ncnc32)C2C(c3c4ccccc4c(Br)c4ccccc34)=NOC12", "note": "(stereo not shown) [4a]", "values": [{"measurement": "cell viability", "setting": "VERO 76 cells", "result": "> 80", "unit": "%"}, {"measurement": "decrease of infectious viral titer (PFU/mL)", "setting": "Echovirus 11 [2]", "result": "> 10", "unit": "fold"}, {"measurement": "reduction in E11 infection / E11-induced CPE", "setting": "Echovirus 11 [1]; 25 µM, post-infection", "result": "90% and 83.9%"}, {"measurement": "reduction in E11 infection / E11-induced CPE", "setting": "Echovirus 11 [1]; 50 µM, post-infection", "result": "75% and 79.8%"}, {"measurement": "EC50", "setting": "Echovirus 11 [1]", "result": "8.15 ± 1.4", "unit": "µM"}, {"measurement": "anti-SARS-CoV-2 RdRp activity", "setting": "SARS-CoV-2 RdRp", "result": "moderate anti-SARS-CoV-2 RdRp activity"}, {"measurement": "RdRp RNA levels in the supernatant", "setting": "Echovirus 11 [3]", "result": "significantly reduced"}, {"measurement": "reduction in intracellular viral RNA levels", "setting": "Echovirus 11 [4]; 10 h p.i.", "result": 43, "unit": "%"}, {"measurement": "reduction in intracellular viral RNA levels", "setting": "Echovirus 11 [4]; 24 h p.i.", "result": 65, "unit": "%"}, {"measurement": "drop in viral RNA levels in supernatant", "setting": "Echovirus 11 [4]; 24 h p.i.", "result": 31, "unit": "%"}, {"measurement": "drop in viral RNA levels in supernatant", "setting": "Echovirus 11 [4]; 48 h p.i.", "result": 91, "unit": "%"}, {"measurement": "reduction in extracellular viral RNA", "setting": "Echovirus 11 [5]; 25 µM", "result": 72, "unit": "%"}, {"measurement": "reduction in extracellular viral RNA", "setting": "Echovirus 11 [5]; 50 µM", "result": 89, "unit": "%"}, {"measurement": "CPE in fresh VERO 76 cells exposed to supernatants of treated cultures", "setting": "Echovirus 11 [6]", "result": "markedly reduced CPE"}]}, {"smiles": "O=P(O)(O)OC1CC(n2cnc3c(Cl)ncnc32)C2ON=C(c3c4ccccc4c(Br)c4ccccc34)C12", "note": "(stereo not shown) [4b]", "values": [{"measurement": "CC50", "setting": "VERO 76 cells", "result": 93.7, "unit": "µM"}, {"measurement": "cell viability", "setting": "VERO 76 cells", "result": "~ 77%"}, {"measurement": "reduction in E11 infection / E11-induced CPE", "setting": "Echovirus 11 [1]; 25 µM, post-infection", "result": 58, "unit": "%"}, {"measurement": "reduction in E11 infection / E11-induced CPE", "setting": "Echovirus 11 [1]; 50 µM, post-infection", "result": 38, "unit": "%"}, {"measurement": "EC50", "setting": "Echovirus 11 [1]", "result": "40.5 ± 1.8", "unit": "µM"}, {"measurement": "anti-SARS-CoV-2 RdRp activity", "setting": "SARS-CoV-2 RdRp", "result": "moderate anti-SARS-CoV-2 RdRp activity"}, {"measurement": "effect on viral RNA levels in supernatant", "setting": "Echovirus 11 [5]; 6.25–100 µM, MOI 0.025", "result": "did not markedly affect viral RNA levels"}]}]}
